Experimental data: paper PMC7377239, “Cardiovascular Effects of Polychlorinated Biphenyls and Their Major Metabolites” (Environmental Health Perspectives, 2020)
Counter-ions that a name gives are not always drawn. Like-named read-outs stand apart in the source and are kept apart here.

Experiments:
[1] = tested on: HUVECs; assay: Tube formation (tubulogenesis) assay in HUVECs, 18 h; format: cell-based, human; conditions: Homo sapiens, HUVEC, 18 h; for activity at 0.1 µM: 0.10 µM
Procedure, shortened: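 HUVECs (passage 1–5) seeded on reduced-growth-factor basement membrane and exposed to compounds overnight at 37°C, 5% CO2, in 2× maintenance medium with 12.5 ng/mL VEGF; 0.5% DMSO vehicle. Calcein AM-stained tube networks imaged and analysed; vehicle-normalized readouts fit to four-parameter logistic, POD set at one SD of vehicle means.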

[2] = tested on: iCell endothelial cells (human iPSC-derived ECs); assay: High-content imaging cytotoxicity in iCell endothelial cells, 24 h; format: cell-based; conditions: Homo sapiens, Endothelial cell, 24 hr; for viability at 0.1 µM / activity at 0.1 µM: 0.10 µM
Procedure, shortened: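 Readouts were vehicle-normalised and fitted to a four-parameter logistic model. POD was set at one SD beyond 0.5% DMSO control means, and 100 µM was assigned when no response was seen. Cells were monolayers of iCell endothelial cells imaged after 24 h compound exposure using nuclear, mitochondrial and calcein dyes.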

[3] = HUVECs, 0.00 µM = 100.00, read-out: huvec.mtl.18hr
[4] = HUVECs, 0.00 µM = 100.00, read-out: huvec.tlps.18hr
[5] = HUVECs, 0.00 µM = 100.00, read-out: huvec.tta.18hr
[6] = HUVECs, 0.00 µM = 100.00, read-out: huvec.ttl.18hr
[7] = iPSC-EC, 0.00 µM control = 100.00, read-out: endo.cyto.24hr
[8] = iPSC-EC, 0.00 µM control = 100.00, read-out: endo.mito.24hr
[9] = iPSC-EC, 0.00 µM control = 100.00, read-out: endo.mitoint.24hr
[10] = iPSC-EC, 0.00 µM control = 100.00, read-out: endo.nma.24hr
[11] = iPSC-EC, 0.00 µM control = 100.00, read-out: endo.tc.24hrs
[12] = tube formation mtl, read-out: POD huvec.mtl.18hr
[13] = tube formation tlps, read-out: POD huvec.tlps.18hr
[14] = tube formation tta, read-out: POD huvec.tta.18hr
[15] = tube formation ttl, read-out: POD huvec.ttl.18hr
[16] = endothelial cells (endo), cyto, read-out: POD endo.cyto.24hr
[17] = endothelial cells (endo), mito, read-out: POD endo.mito.24hr
[18] = endothelial cells (endo), mitoint, read-out: POD endo.mitoint.24hr
[19] = endothelial cells (endo), nma, read-out: POD endo.nma.24hr
[20] = endothelial cells (endo), tc, read-out: POD endo.tc.24hr

Clc1cccc(-c2cccc(Cl)c2)c1 [PCB11]
activity at 0.01 µM [1, 3]: 107%
activity at 0.01 µM [1, 4]: 122%
activity at 0.01 µM [1, 5]: 138%
activity at 0.01 µM [1, 6]: 122%
activity at 0.1 µM [1, 3]: 113%
activity at 0.1 µM [1, 4]: 126%
activity at 0.1 µM [1, 5]: 133%
activity at 0.1 µM [1, 6]: 124%
activity at 1 µM [1, 3]: 109%
activity at 1 µM [1, 4]: 130%
activity at 1 µM [1, 5]: 157%
activity at 1 µM [1, 6]: 140%
activity at 10 µM [1, 3]: 97.8%
activity at 10 µM [1, 4]: 94.6%
activity at 10 µM [1, 5]: 86.1%
activity at 10 µM [1, 6]: 87.2%
activity at 100 µM [1, 3]: 81.4%
activity at 100 µM [1, 4]: 77.5%
activity at 100 µM [1, 5]: 85%
activity at 100 µM [1, 6]: 78.8%
minimal effective concentration ([1]; HUVECs, top concentration 100.00 µM, read-out: huvec.mtl.18hr POD): 100 µM
minimal effective concentration ([1]; HUVECs, top concentration 100.00 µM, read-out: huvec.tlps.18hr POD): 41.8 µM
minimal effective concentration ([1]; HUVECs, top concentration 100.00 µM, read-out: huvec.tta.18hr POD): 100 µM
minimal effective concentration ([1]; HUVECs, top concentration 100.00 µM, read-out: huvec.ttl.18hr POD): 100 µM
viability at 0.01 µM [2, 7]: 99.3%
activity at 0.01 µM [2, 8]: 99.6%
activity at 0.01 µM [2, 9]: 100%
activity at 0.01 µM [2, 10]: 101%
viability at 0.01 µM [2, 11]: 99.3%
viability at 0.1 µM [2, 7]: 95.3%
activity at 0.1 µM [2, 8]: 96%
activity at 0.1 µM [2, 9]: 97.8%
activity at 0.1 µM [2, 10]: 102%
viability at 0.1 µM [2, 11]: 95.3%
viability at 1 µM [2, 7]: 96.6%
activity at 1 µM [2, 8]: 97%
activity at 1 µM [2, 9]: 96.1%
activity at 1 µM [2, 10]: 99.7%
viability at 1 µM [2, 11]: 96.6%
viability at 10 µM [2, 7]: 99%
activity at 10 µM [2, 8]: 99.4%
activity at 10 µM [2, 9]: 107%
activity at 10 µM [2, 10]: 100%
viability at 10 µM [2, 11]: 99%
viability at 100 µM [2, 7]: 104%
activity at 100 µM [2, 8]: 105%
activity at 100 µM [2, 9]: 92.6%
activity at 100 µM [2, 10]: 100%
viability at 100 µM [2, 11]: 104%
minimal effective concentration ([2]; iPSC-EC, top concentration 100.00 µM, read-out: endo.cyto.24hr POD): 100 µM
minimal effective concentration ([2]; iPSC-EC, top concentration 100.00 µM, read-out: endo.mito.24hr POD): 100 µM
minimal effective concentration ([2]; iPSC-EC, top concentration 100.00 µM, read-out: endo.mitoint.24hr POD): 100 µM
minimal effective concentration ([2]; iPSC-EC, top concentration 100.00 µM, read-out: endo.nma.24hr POD): 100 µM
minimal effective concentration ([2]; iPSC-EC, top concentration 100.00 µM, read-out: endo.tc.24hrs POD): 100 µM

O=S(=O)(O)Oc1ccc(-c2cccc(Cl)c2)cc1Cl [4-PCB 11 sulfate]
minimal effective concentration [1, 12]: 14.3 µM
minimal effective concentration [1, 13]: 27.2 µM
minimal effective concentration [1, 14]: 100 µM
minimal effective concentration [1, 15]: 100 µM
minimal effective concentration [2, 16]: 100 µM
minimal effective concentration [2, 17]: 100 µM
minimal effective concentration [2, 18]: 100 µM
minimal effective concentration [2, 19]: 100 µM
minimal effective concentration [2, 20]: 100 µM

COc1ccc(-c2ccc(Cl)cc2)cc1 [4'-OMe-PCB 3, 4′-methoxy-4-chlorobiphenyl]
minimal effective concentration [1, 12]: 7.13 µM
minimal effective concentration [1, 13]: 49.5 µM
minimal effective concentration [1, 14]: 8.82 µM
minimal effective concentration [1, 15]: 7.82 µM
minimal effective concentration [2, 16]: 100 µM
minimal effective concentration [2, 17]: 100 µM
minimal effective concentration [2, 18]: 20.5 µM
minimal effective concentration [2, 19]: 100 µM
minimal effective concentration [2, 20]: 100 µM

Clc1ccc(-c2cc(Cl)c(Cl)c(Cl)c2)cc1Cl [PCB 126, 3,3′,4,4′,5-pentachlorobiphenyl]
minimal effective concentration [1, 12]: 100 µM
minimal effective concentration [1, 13]: 100 µM
minimal effective concentration [1, 14]: 100 µM
minimal effective concentration [1, 15]: 100 µM
minimal effective concentration [2, 16]: 0.33 µM
minimal effective concentration [2, 17]: 0.33 µM
minimal effective concentration [2, 18]: 10.2 µM
minimal effective concentration [2, 19]: 100 µM
minimal effective concentration [2, 20]: 0.34 µM

COc1cc(Cl)c(-c2cc(Cl)ccc2Cl)cc1Cl [4-OMe-PCB 52, 4-methoxy-2,2′,5,5′-tetrachlorobiphenyl]
minimal effective concentration [1, 12]: 17.1 µM
minimal effective concentration [1, 13]: 14.2 µM
minimal effective concentration [1, 14]: 100 µM
minimal effective concentration [1, 15]: 100 µM
minimal effective concentration [2, 16]: 43.5 µM
minimal effective concentration [2, 17]: 43.5 µM
minimal effective concentration [2, 18]: 100 µM
minimal effective concentration [2, 19]: 56.1 µM
minimal effective concentration [2, 20]: 40.3 µM
